Results: patent publication US7235379B2, “Method and medium for the detection/identification of microorgranisms with esterase activity” (Bio Merieux, priority 2000, dated 2007)
Several values for one entry are separate records, joined by “and”; a condition that tells them apart may be missing. Identical values can stand only once. Counter-ions that a name gives are not always drawn. Like-named read-outs stand apart in the source and are kept apart here.

Experiments:
Enterobacter cloacae 086 = assay: Ex.1 colony coloration, 5-bromo-3-indolyl nonanoate, DMSO/Tween 20, MacConkey; format: cell-based; for intensity of coloration: key: 0: no activity; 0.1: trace of coloration; 0.5: very pale coloration; 1: distinct coloration of low intensity; 2: clear coloration of medium intensity; 3: intense coloration; 4: very intense coloration
Source text: (§3) The intensity of coloration corresponds to an arbitrary scale defined as follows:

[1] = system: Salmonella typhimurium 010; assay: Ex.2 colony coloration, 5-bromo-3-indolyl nonanoate, methanol/bile salts, MacConkey; format: cell-based; for intensity of coloration: key: 0: no activity; 0.1: trace of coloration; 0.5: very pale coloration; 1: distinct coloration of low intensity; 2: clear coloration of medium intensity; 3: intense coloration; 4: very intense coloration
Source text: as §3

Salmonella arizonae 018 [2] = assay: as above; format: cell-based
Source text: as §3

[3] = system: Pseudomonas aeruginosa 165; assay: as above; format: cell-based
Source text: as §3

[4] = system: Listeria monocytogenes 079; assay: Ex.3 colony coloration, 5-bromo-4-chloro-3-indolyl nonanoate 250 mg/l, DMSO/Tween 20; format: cell-based; note: key: 0: no activity; 0.1: trace of coloration; 0.5: very pale coloration; 1: distinct coloration of low intensity; 2: clear coloration of medium intensity; 3: intense coloration; 4: very intense coloration
Procedure: (§4) The esterase substrate tested is 5-bromo-4-chloro-3-indolyl nonanoate. A 40 g/l stock solution of substrate is prepared in a mixture of 40% dimethyl sulfoxide and 60% Tween 20. A sufficient volume is added to a supercooled MacConkey medium (without neutral red) to give a substrate concentration of 250 mg/l.
as §3

[5] = system: Pseudomonas aeruginosa 165; assay: as above; format: cell-based
Procedure: as §4, §3

Candida albicans 033 = assay: as above; format: cell-based; note: key: 0: no activity; 0.1: trace of coloration; 0.5: very pale coloration; 1: distinct coloration of low intensity; 2: clear coloration of medium intensity; 3: intense coloration; 4: very intense coloration
Procedure: as §4, §3

Salmonella spp. 017 = assay: Ex.4 colony coloration, 5-bromo-3-indolyl nonanoate, DMSO/Tween 20, MacConkey; format: cell-based; conditions: 8 ml/l Tergitol 4
[6] = system: Salmonella enteritidis 006; assay: as above; format: cell-based; conditions: 8 ml/l Tergitol 4
Salmonella typhi 118 = format: cell-based
Salmonella arizonae 018 [7] = assay: Ex.4 colony coloration, 5-bromo-3-indolyl nonanoate, DMSO/Tween 20, MacConkey; format: cell-based; conditions: 8 ml/l Tergitol 4
Hafnia alvei 025 = assay: as above; format: cell-based; design: key: —: absence of colour or intensity; conditions: 8 ml/l Tergitol 4
[8] = system: bacterial strains exhibiting an esterase activity; conditions: between 2 and 16 ml/l, more precisely between 4 and 8 ml/l
Procedure: (§1) The esterase substrate tested is 5-bromo-3-indolyl nonanoate. A 40 g/l stock solution of substrate is prepared in a mixture of 40% dimethyl sulfoxide and 60% Tween 20. A sufficient volume is added to a supercooled MacConkey medium (without neutral red) to give a substrate concentration of 500 mg/l.
(§2) Microorganisms originating from the Applicant's collection were inoculated onto this medium from a 0.5 McFarland suspension by isolation in three quadrants. The dishes were incubated at 37° C. for 48 hours. The colonies formed were examined visually after 24 and 48 hours of incubation. The coloration of these colonies and the intensity of this coloration were noted.

[9] = system: bacterial strains exhibiting an esterase activity; conditions: between 2 and 16 ml/l, more precisely between 4 and 8 ml/l; remark: listed apart in the source
Procedure: The esterase substrate tested is 5-bromo-3-indolyl nonanoate. A 25 g/l stock solution of substrate is prepared in methanol to which 5 g/l of bile salts have been added. A sufficient volume is added to a supercooled MacConkey medium (without neutral red) to give a substrate concentration of 500 mg/l.
as §2

[10] = system: Gram-positive bacteria or yeasts
Procedure: as §1, with “5-bromo-4-chloro-3-indolyl” for “5-bromo-3-indolyl”, “250” for “500”
as §2

CCCCC(CC)CCC(CC(C)C)OS(=O)(=O)O (stereo not drawn) [Tergitol 4, 7-ethyl-2-methyl-4-undecanoate hydrogensulfate or its sodium salt]
color (Enterobacter cloacae 086; 2 ml/l, 24 h): gray
intensity of coloration (Enterobacter cloacae 086; 2 ml/l, 24 h): 0.5
color (Enterobacter cloacae 086; 2 ml/l, 48 h): gray
intensity of coloration (Enterobacter cloacae 086; 2 ml/l, 48 h): 2
color (Enterobacter cloacae 086; 4 ml/l, 24 h): gray
intensity of coloration (Enterobacter cloacae 086; 4 ml/l, 24 h): 1
color (Enterobacter cloacae 086; 4 ml/l, 48 h): gray
intensity of coloration (Enterobacter cloacae 086; 4 ml/l, 48 h): 3
color (Enterobacter cloacae 086; 8 ml/l, 24 h): gray
intensity of coloration (Enterobacter cloacae 086; 8 ml/l, 24 h): 0.5
color (Enterobacter cloacae 086; 8 ml/l, 48 h): gray
intensity of coloration (Enterobacter cloacae 086; 8 ml/l, 48 h): 1
color (Enterobacter cloacae 086; 16 ml/l, 24 h): gray
intensity of coloration (Enterobacter cloacae 086; 16 ml/l, 24 h): 0.5
color (Enterobacter cloacae 086; 16 ml/l, 48 h): gray
intensity of coloration (Enterobacter cloacae 086; 16 ml/l, 48 h): 1
color ([1]; 2 ml/l, 24 h): gray
intensity of coloration ([1]; 2 ml/l, 24 h): 2
color ([1]; 2 ml/l, 48 h): gray
intensity of coloration ([1]; 2 ml/l, 48 h): 2
color ([1]; 4 ml/l, 24 h): gray
intensity of coloration ([1]; 4 ml/l, 24 h): 2
color ([1]; 4 ml/l, 48 h): gray
intensity of coloration ([1]; 4 ml/l, 48 h): 3
color ([1]; 8 ml/l, 24 h): gray
intensity of coloration ([1]; 8 ml/l, 24 h): 3
color ([1]; 8 ml/l, 48 h): gray
intensity of coloration ([1]; 8 ml/l, 48 h): 3
color ([1]; 16 ml/l, 24 h): gray
intensity of coloration ([1]; 16 ml/l, 24 h): 3
color ([1]; 16 ml/l, 48 h): gray
intensity of coloration ([1]; 16 ml/l, 48 h): 3.5
color (Salmonella arizonae 018 [2]; 2 ml/l, 24 h): gray
intensity of coloration (Salmonella arizonae 018 [2]; 2 ml/l, 24 h): 2.5
color (Salmonella arizonae 018 [2]; 2 ml/l, 48 h): gray
intensity of coloration (Salmonella arizonae 018 [2]; 2 ml/l, 48 h): 3
color (Salmonella arizonae 018 [2]; 4 ml/l, 24 h): gray
intensity of coloration (Salmonella arizonae 018 [2]; 4 ml/l, 24 h): 2
color (Salmonella arizonae 018 [2]; 4 ml/l, 48 h): gray
intensity of coloration (Salmonella arizonae 018 [2]; 4 ml/l, 48 h): 2.5
color (Salmonella arizonae 018 [2]; 8 ml/l, 24 h): gray
intensity of coloration (Salmonella arizonae 018 [2]; 8 ml/l, 24 h): 0.5
color (Salmonella arizonae 018 [2]; 8 ml/l, 48 h): gray
intensity of coloration (Salmonella arizonae 018 [2]; 8 ml/l, 48 h): 1.5
color (Salmonella arizonae 018 [2]; 16 ml/l, 24 h): gray
intensity of coloration (Salmonella arizonae 018 [2]; 16 ml/l, 24 h): 0.5
color (Salmonella arizonae 018 [2]; 16 ml/l, 48 h): gray
intensity of coloration (Salmonella arizonae 018 [2]; 16 ml/l, 48 h): 2
color ([3]; 2 ml/l, 24 h): gray
intensity of coloration ([3]; 2 ml/l, 24 h): 3.5
color ([3]; 2 ml/l, 48 h): gray
intensity of coloration ([3]; 2 ml/l, 48 h): 3.5
color ([3]; 4 ml/l, 24 h): gray
intensity of coloration ([3]; 4 ml/l, 24 h): 4
color ([3]; 4 ml/l, 48 h): gray
intensity of coloration ([3]; 4 ml/l, 48 h): 4
color ([3]; 8 ml/l, 24 h): gray
intensity of coloration ([3]; 8 ml/l, 24 h): 4
color ([3]; 8 ml/l, 48 h): gray
intensity of coloration ([3]; 8 ml/l, 48 h): 4
color ([3]; 16 ml/l, 24 h): gray
intensity of coloration ([3]; 16 ml/l, 24 h): 4
color ([3]; 16 ml/l, 48 h): gray
intensity of coloration ([3]; 16 ml/l, 48 h): 4
intensity of coloration ([4]; 0.001 ml/l, 24 h): 2
intensity of coloration ([4]; 0.001 ml/l, 48 h): 3
intensity of coloration ([4]; 0.01 ml/l, 24 h): 3
intensity of coloration ([4]; 0.01 ml/l, 48 h): 3
intensity of coloration ([4]; 0.1 ml/l, 24 h): 2
intensity of coloration ([4]; 0.1 ml/l, 48 h): 3
intensity of coloration ([4]; 1 ml/l (1st col), 24 h): 2
intensity of coloration ([4]; 1 ml/l (1st col), 48 h): 3
intensity of coloration ([4]; 1 ml/l (2nd col), 24 h): 2
intensity of coloration ([4]; 1 ml/l (2nd col), 48 h): 3
intensity of coloration ([5]; 0.001 ml/l, 24 h): 0.1
intensity of coloration ([5]; 0.001 ml/l, 48 h): 0.5
intensity of coloration ([5]; 0.01 ml/l, 24 h): 0.5
intensity of coloration ([5]; 0.01 ml/l, 48 h): 1
intensity of coloration ([5]; 0.1 ml/l, 24 h): 0.1
intensity of coloration ([5]; 0.1 ml/l, 48 h): 0.5
intensity of coloration ([5]; 1 ml/l (1st col), 24 h): 0.5
intensity of coloration ([5]; 1 ml/l (1st col), 48 h): 0.5
intensity of coloration ([5]; 1 ml/l (2nd col), 24 h): 0.5
intensity of coloration ([5]; 1 ml/l (2nd col), 48 h): 1
intensity of coloration (Candida albicans 033; 0.001 ml/l, 24 h): 0.5
intensity of coloration (Candida albicans 033; 0.001 ml/l, 48 h): 3
intensity of coloration (Candida albicans 033; 0.01 ml/l, 24 h): 0.5
intensity of coloration (Candida albicans 033; 0.01 ml/l, 48 h): 3
intensity of coloration (Candida albicans 033; 0.1 ml/l, 24 h): 0.5
intensity of coloration (Candida albicans 033; 0.1 ml/l, 48 h): 3
intensity of coloration (Candida albicans 033; 1 ml/l (1st col), 24 h): 0.5
intensity of coloration (Candida albicans 033; 1 ml/l (1st col), 48 h): 3
intensity of coloration (Candida albicans 033; 1 ml/l (2nd col), 24 h): 0.5
intensity of coloration (Candida albicans 033; 1 ml/l (2nd col), 48 h): 3
color (Salmonella spp. 017; 24 h): gray
intensity of coloration (Salmonella spp. 017; 24 h): 2.5
color (Salmonella spp. 017; 48 h): gray
intensity of coloration (Salmonella spp. 017; 48 h): 3.5
color ([6]; 24 h): gray
intensity of coloration ([6]; 24 h): 3
color ([6]; 48 h): gray
intensity of coloration ([6]; 48 h): 3
color (Salmonella typhi 118): gray
intensity of coloration (Salmonella typhi 118; sodium salt): 3 and 3.5
color (Salmonella arizonae 018 [7]; 24 h): gray
intensity of coloration (Salmonella arizonae 018 [7]; 24 h): 3.5
color (Salmonella arizonae 018 [7]; 48 h): gray
intensity of coloration (Salmonella arizonae 018 [7]; 48 h): 3.5
color (Hafnia alvei 025; 24 h): —
color (Hafnia alvei 025; 48 h): —
effect on intensity of coloration [8]: significantly increases the intensity of coloration
effect on intensity of coloration [9]: significantly increases the intensity of coloration
effect on the expression of the esterase activity ([10]; 0.001 to 1 ml/l tested): positive effect
growth on culture medium ([10]; excessive Tergitol 4 concentrations): cannot develop on a culture medium
